This experiment has as its target human DAT (CHO-DAT) (Homo sapiens, UniProt Q01959). Conditions: labelled compound, 60 nM, pH 7.4, 37°C.

Chain of human DAT (CHO-DAT) (Q01959 whole entry): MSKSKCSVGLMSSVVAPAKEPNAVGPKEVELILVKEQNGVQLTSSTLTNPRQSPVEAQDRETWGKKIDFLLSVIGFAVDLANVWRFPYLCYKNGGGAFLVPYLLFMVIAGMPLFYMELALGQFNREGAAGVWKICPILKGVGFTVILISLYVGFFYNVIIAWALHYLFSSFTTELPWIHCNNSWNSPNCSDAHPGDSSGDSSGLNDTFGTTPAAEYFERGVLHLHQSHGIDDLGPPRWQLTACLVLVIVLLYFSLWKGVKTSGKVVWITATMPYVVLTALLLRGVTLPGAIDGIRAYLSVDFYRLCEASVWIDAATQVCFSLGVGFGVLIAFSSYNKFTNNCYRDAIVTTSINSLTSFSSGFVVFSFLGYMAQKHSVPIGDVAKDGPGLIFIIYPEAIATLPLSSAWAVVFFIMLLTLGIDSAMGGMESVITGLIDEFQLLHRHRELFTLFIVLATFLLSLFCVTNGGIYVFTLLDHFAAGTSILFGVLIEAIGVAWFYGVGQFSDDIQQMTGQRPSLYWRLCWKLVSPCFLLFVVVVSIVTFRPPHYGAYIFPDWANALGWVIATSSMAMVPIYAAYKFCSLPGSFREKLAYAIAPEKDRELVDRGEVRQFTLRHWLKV

Take `NCCc1ccc(O)c(O)c1` [dopamine]: the “[3H]-dopamine uptake in CHO-DAT cells” value is “cells expressing the DA transporter (CHO-DAT) using tritiated dopamine”.

The record behind these values is article PMC9552247 (Addiction biology, 2022).
